The nature of data set [1]: Antioxidant activity assessed as DPPH free radical scavenging activity after 30 mins by spectrophotometry. It is filed as physicochemical.
Data set [2] in a line: Antioxidant activity assessed as AAPH radical scavenging activity preincubated for 30 mins followed by AAPH addition measured after 60 mins by ORAC assay. It is filed as physicochemical.
Data set [3] in a line: Ratio of resveratrol IC50 to compound IC50 for AAPH radical scavenging activity.
A short description of data set [4]: Ratio of resveratrol IC50 to compound IC50 for DPPH free radical scavenging activity.
Data set [5] in a line: Toxicity in Tetrahymena thermophila assessed as reduction in cell viability after 48 hrs by MTT assay. It is filed as organism-based. Particulars: Tetrahymena thermophila cells, read-out: LD50.
The nature of data set [6]: Inhibition of preformed Cu2+-induced amyloid beta (1 to 40) fibril aggregation assessed as remaining fibril aggregates at 100 uM after 4 days at pH 6.60 by thioflavin-T fluorescence assay.
The nature of data set [7]: Inhibition of preformed Cu2+-induced amyloid beta (1 to 40) fibril aggregation assessed as remaining fibril aggregates at 100 uM after 12 days at pH 6.60 by thioflavin-T fluorescence assay.
For data set [8], the target named is Amyloid-beta precursor protein (Homo sapiens) (UniProt P05067). The data set can be described thus: Induction of preformed self-induced amyloid beta (1 to 40) (unknown origin) fibril aggregation at 100 uM after 4 days by turbidity assay.
A short description of data set [9]: Inhibition of Cu2+-amyloid beta (1 to 40) catalyzed generation of hydroxyl radical assessed as rate of radical formation per min at 2 equiv preincubated for 1 hr followed by CCA addition measured over 60 mins by CCA based fluorescence assay (reference value: 13 +/- 0.2 a.u.).
Data set [10] has as its target Amyloid-beta precursor protein (Homo sapiens) (UniProt P05067). The experiment in a line: Inhibition of self-induced amyloid beta (1 to 40) (unknown origin) fibril aggregation assessed as remaining fibril aggregates at 100 uM after 3 days at pH 6.60 by thioflavin-T fluorescence assay.
The nature of data set [11]: Inhibition of Cu2+-induced amyloid beta (1 to 40) fibril aggregation at 100 uM preincubated for 5 mins followed by amyloid beta (1 to 40) addition measured after 18 days by turbidity assay.
Data set [12] can be described thus: Binding affinity to Mg2+ using MgSO4 at 20 uM after 5 mins by spectrophotometry.
For data set [13], the target named is Amyloid-beta precursor protein (Homo sapiens) (UniProt P05067). The data set can be described thus: Inhibition of self-induced amyloid beta (1 to 40) (unknown origin) fibril aggregation assessed as remaining fibril aggregates at 100 uM after 7 days at pH 6.60 by thioflavin-T fluorescence assay.
Data set [14] shares this target. The data set can be described thus: Induction of self-induced amyloid beta (1 to 40) (unknown origin) fibril aggregation at 100 uM after 3 days by turbidity assay.
Data set [15] shares this target. The data set can be described thus: Binding affinity to amyloid beta (1 to 40) (unknown origin) by tyrosine fluorimetric titration assay.
Data set [16] shares this target. The data set can be described thus: Inhibition of preformed self-induced amyloid beta (1 to 40) (unknown origin) fibril aggregation at 100 uM after 12 days by turbidity assay relative to control.
For data set [17] the target is unchanged. The experiment in a line: Inhibition of preformed self-induced amyloid beta (1 to 40) (unknown origin) fibril aggregation assessed as remaining fibril aggregates at 100 uM after 4 days at pH 6.60 by thioflavin-T fluorescence assay.
The nature of data set [18]: Binding affinity to Cu2+ using CuCl2 at 10 uM after 5 mins by spectrophotometric titration assay.
The nature of data set [19]: Binding affinity to Mn2+ using MnCl2 at 20 uM after 5 mins by spectrophotometry.
Data set [20] in a line: Inhibition of Cu2+-induced amyloid beta (1 to 40) fibril aggregation assessed as remaining fibril aggregates at 100 uM preincubated for 5 mins followed by amyloid beta (1 to 40) addition measured after 7 days at pH 6.60 by thioflavin-T fluorescence assay.
Data set [21] is described as follows: Binding affinity to Cu2+ using CuCl2 after 5 mins by spectrophotometry.
A short description of data set [22]: Inhibition of Cu2+-induced amyloid beta (1 to 40) fibril aggregation assessed as remaining fibril aggregates at 100 uM preincubated for 5 mins followed by amyloid beta (1 to 40) addition measured after 3 days at pH 6.60 by thioflavin-T fluorescence assay.
Data set [23] in a line: Binding affinity to Fe2+ using FeCl2 at 20 uM after 5 mins by spectrophotometry.
The target of data set [24] is Amyloid-beta precursor protein (Homo sapiens) (UniProt P05067). The data set can be described thus: Inhibition of self-induced amyloid beta (1 to 40) (unknown origin) fibril aggregation at 100 uM after 7 to 18 days by turbidity assay.
Data set [25] can be described thus: Induction of Cu2+-induced amyloid beta (1 to 40) fibril aggregation at 100 uM preincubated for 5 mins followed by amyloid beta (1 to 40) addition measured after 3 to 7 days by turbidity assay.
The nature of data set [26]: Binding affinity to Ca2+ using CaCl2 at 20 uM after 5 mins by spectrophotometry.
Data set [27] can be described thus: Inhibition of Cu2+-amyloid beta (1 to 40) catalyzed generation of hydroxyl radical assessed as 7-hrdroxy-CCA formation at 2 equiv preincubated for 1 hr followed by CCA addition measured over 60 mins by fluorescence assay.
The nature of data set [28]: Inhibition of Cu2+-induced amyloid beta (1 to 40) aggregation at 100 uM preincubated for 5 mins followed by amyloid beta (1 to 40) addition measured after 18 days at pH 6.60 by thioflavin-T fluorescence assay.
Data set [29] can be described thus: Induction of preformed Cu2+-induced amyloid beta (1 to 40) fibril aggregation at 100 uM after 4 to 12 days by turbidity assay relative to control.
For data set [30], the target named is Amyloid-beta precursor protein (Homo sapiens) (UniProt P05067). The experiment in a line: Inhibition of preformed self-induced amyloid beta (1 to 40) (unknown origin) fibril aggregation assessed as remaining fibril aggregates at 100 uM after 12 days at pH 6.60 by thioflavin-T fluorescence assay.
Data set [31] can be described thus: Binding affinity to Zn2+ using ZnCl2 at 20 uM after 5 mins by spectrophotometry.
Data set [32] can be described thus: Binding affinity to Cu2+ using CuCl2 at 20 uM after 5 mins by spectrophotometric titration assay.
Data set [33] can be described thus: Inhibition of preformed Cu2+-induced amyloid beta (1 to 40) fibril aggregation at 100 uM after 4 to 12 days by turbidity assay relative to control.
Data set [34] in a line: Ratio of ascorbic acid IC50 to compound IC50 for DPPH free radical scavenging activity.

Consider 3 compounds from ChEMBL document CHEMBL3817831, “Ionophoric polyphenols selectively bind Cu(2+), display potent antioxidant and anti-amyloidogenic properties, and are non-toxic toward Tetrahymena thermophila” (Bioorg Med Chem, 2016).

Calls of active or inactive are those of the source. The rule behind the calls is not given here.

Chain of Amyloid-beta precursor protein (Homo sapiens) (P05067 whole entry): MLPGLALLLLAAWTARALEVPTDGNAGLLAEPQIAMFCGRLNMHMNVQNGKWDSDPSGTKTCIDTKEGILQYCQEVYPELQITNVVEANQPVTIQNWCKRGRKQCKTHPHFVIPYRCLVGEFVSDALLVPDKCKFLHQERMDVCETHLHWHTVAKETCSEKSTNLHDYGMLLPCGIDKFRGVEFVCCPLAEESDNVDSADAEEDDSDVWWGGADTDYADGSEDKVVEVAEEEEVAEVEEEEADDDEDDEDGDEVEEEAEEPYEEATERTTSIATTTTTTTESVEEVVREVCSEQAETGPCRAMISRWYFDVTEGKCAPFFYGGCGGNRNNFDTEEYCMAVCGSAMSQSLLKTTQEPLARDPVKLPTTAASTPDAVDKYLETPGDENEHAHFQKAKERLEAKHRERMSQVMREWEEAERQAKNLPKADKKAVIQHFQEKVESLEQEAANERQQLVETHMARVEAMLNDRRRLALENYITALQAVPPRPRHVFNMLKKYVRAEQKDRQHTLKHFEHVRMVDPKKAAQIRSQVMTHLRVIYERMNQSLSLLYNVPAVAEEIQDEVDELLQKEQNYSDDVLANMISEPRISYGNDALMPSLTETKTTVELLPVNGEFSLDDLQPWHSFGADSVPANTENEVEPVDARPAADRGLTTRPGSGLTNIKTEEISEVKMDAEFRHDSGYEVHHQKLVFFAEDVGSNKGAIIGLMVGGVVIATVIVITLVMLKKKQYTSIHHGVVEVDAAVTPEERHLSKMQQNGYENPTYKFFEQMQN

For the compound `O=C1O[C@H]([C@@H](O)CO)C(O)=C1O` [ASCORBIC ACID], the IC50 was 12.8 µM in [1] and 62.2 µM in data set [2]. The Ratio IC50 came to 0.02 in [3] and 1.4 in data set [4].
With `Oc1ccc(/N=C/c2c(O)ccc3ccccc23)c(O)c1`, the LC50 at 48 h in [5] is 265 µM. Besides, the Activity in data set [6] was determined as 46%; in data set [7] it was 47.3%; in data set [9], 0.03 a.u; in data set [10], 6.51%; in [13] it was 6.21%; in data set [17] it was 14.4%. In addition, the Activity in data set [20] stood at 10.9%; in data set [22], 7.85%; in data set [25], 47%; in data set [30], 11%. In addition, the result in data set [8], in [14], in data set [18] and in data set [29] was Active. Also, the inhibition result in data set [11], in data set [16], in data set [24] and in data set [28] was “Active” throughout. In addition, the outcome in [12], in data set [19], in [23], in [26] and in data set [31] was inactive. Moreover, the Ka in data set [15] came to 2.46 ×10⁵ /M. Besides, the figures for the IC50 in data set [1] and in data set [2] were 13.5 µM and 3.15 µM, respectively. The compound further yielded a logKa in [21] of 14.3. Besides, the Ratio IC50 in [3] was found to be 0.5; in data set [4], 1.3. In addition, the inhibition in data set [27] was 98.5%.
For the compound `Oc1ccc(CNc2ccccc2O)cc1`, the LC50 at 48 h in data set [5] was found to be 211 µM. The Activity in data set [6] stood at 152%; in data set [7], 106%; in [9], 6.8 a.u; in [10], 4.34%; in data set [13] it was 3.7%; in [17], 8.37%. The Activity in data set [20] was found to be 11%; in data set [22], 21.8%; in [25] it was 47%; in data set [30], 10.1%. The outcome in data set [32], in [8] and in [14] was Active. For the same compound, the inhibition result in data set [33], in [11], in data set [16], in [24] and in [28] was “Active” each time. Further, the result in [12], in data set [19], in [23], in data set [26] and in [31] was inactive. The Ka in data set [15] came out at 3.27 ×10⁵ /M. The figures for the Ratio IC50 in [34], in data set [3] and in data set [4] were 2, 1.2 and 2.8, respectively. Moreover, the IC50 was determined as 6.27 µM in [1] and 1.38 µM in data set [2]. The compound also had a logKa in [21] of 12.8. In addition, the inhibition in data set [27] was determined as 47.3%.
